Measurements published in article PMC11530130, “Peripherally restricted PICK1 inhibitor mPD5 ameliorates pain behaviors in murine inflammatory and neuropathic pain models” (JCI Insight, 2024).
Several values for one entry are separate records, joined by “and”; a condition that tells them apart may be missing. Equal entries are not always repeated.

Legend:
naive mice [1] = test: Hot water tail immersion (tail-flick) test; type: in vivo, mouse; conditions: for tail-flick time, individual mice: water of 49°C, hr 1, male and female
Procedure: To compare pain-relevant vocalizations, only short and constant USVs of 37 kHz were counted […]
Tail-Flick immersion test
Naïve wildtype male and female mice (10 weeks of age) were habituated to handling and experimental set up for one week prior to data collection. On the day of data collection, a baseline measurement was performed prior to injection of compounds. One measurement consisted of immersion of 2/3rds of the tail in water (49 °C) for maximum ten seconds, three times with an interval of ten seconds between each measurement using the mean of the three measurements. After baseline, mice were injected s.c. with mPD5 10 μmol/kg mPD5, 10 mg/kg morphine (RH Pharmacy, Denmark, Vnr. 475249), or sterile PBS one hour before undergoing the tail-flick hot water immersion assay again.
Mice were pretreated with 10 μmol/kg mPD5, 10 mg/kg morphine (RH Pharmacy, Denmark, Vnr. 475249), or PBS 45 min before habituation to observation container (glass cylinder surrounded by mirrors on 2 sides) for 15 min. Mice then received an intraplantar injection of 20 µl capsaicin (1.6 ug/paw) (sigma CAS Number:404-86-4, diluted with 1:1:8 solution of tween-20, 70% ethanol, and MilliQ water) in one hind paw and were reintroduced to the observation container. Mice were recorded for three min after i.pl. injection with capsaicin and euthanized the same day. Mice were scored manually for the amount of time spent paw licking within three min after capsaicin administration.
Mice were 10 weeks old at the beginning of the experiment and acclimatized to the animal facility for two weeks after arrival. Male mice were randomized into two groups (n = 8/group) and weighed and injected s.c. once daily (between 3 pm and 4 pm) for 14 days with sterile PBS or 10 μmol/kg mPD5 (diluted in sterile PBS and pH adjusted to 7.4). After 14 days of dosing, the males were paired with female mice in fresh cages, and the number of pubs counted for 35 days (males were removed from the breeding cages after 14 days). Following the 14 days mating period, males were sacrificed by cervical dislocation caudae epidymidis were removed and weighed. Caudae epidymidis were cut into smaller pieces in 2 mL PBS (37 °C) and incubated (37 °C, 5% CO2) for 15 min. Following incubation, the mix was swirled gently, and 0.5 mL of the liquid was transferred to room tempered PBS to achieve a final volume of 1 mL.
Subsequently, sperm count was determined by transferring 50 µL of the sample to a hemocytometer, and each sample was determined in duplicate by an experimenter blinded to drug treatment. Following criteria were assessed: mobility (forward and circular), local tail mobility and total number. Females were weighed on a regular basis from removal of the males […]
Unless otherwise stated, all data were analysed using GraphPad Prism 9.4.1. and presented as mean +-SEM with the significance level set to p < 0.05. For locomotion and elevated plus maze, Ethovision XT 13 (Noldus) was used to track the distance travelled by each animal. For within group analysis (i.e., von Frey experiments), two-way ANOVA followed by Dunnett’s post hoc test was used. For between group analysis of multiple time points (i.e., locomotion experiments), two-way ANOVA was used without post hoc test due to lack of treatment significance in the ANOVA test. For the limb use experiment, data pre versus post treatment was analysed with a Kruskal Wallis test due to the non-parametric nature of the data. […]

naive mice [2] = test: Conditioned place preference (CPP); type: in vivo, mouse; conditions: for locomotion during conditioning compared with PBS / time in the drug-paired compartment during the posttest compared with PBS: naive mice
Procedure: compartment and that a single exposure of psychostimulants in the grey compartment sufficiently changes the preference towards that compartment (9-11). For further details of the setup, we refer to (10). Experiments lasted three days with exposure sessions on days one and two and a preference test on day three. On each day, animals were moved from the housing facility to the experimental room and allowed to acclimatize for at least 60 min before initiation of the experiment. mPD5 was paired with the grey compartment, known to be the least preferred compartment (10, 11). All mice from a cage were tested at the same time, but not all were given the same treatment. Mice were weighed and injected s.c. with PBS or 30 μmol/kg mPD5. For the sePP on CFA-injected mice, the injury was induced as described in “Induction of inflammatory pain (CFA model)”-section. sePP was run on day 3-5 after CFA-injection, and von Frey was performed on days 0, 2, and 5 as described in the “Mechanically-evoked pain (von Frey)”-section.
Conditioned place preference.
CPP was performed in Med-Associates square behavioral chambers fitted with beam-break movement detection. Chambers are split in two (27.3 x 13.5 cm each) with a red Plexiglas wall (allowing penetrance of the beams) and a predictable-preference design. Least-preferred compartment: white walls + floor and a transparent lid. Preferred compartment: horizontal grey and black stripes on the wall and lid with a light grey upside-down Lego® floor. Mice can freely move between the two compartments through a 4x4 cm opening in the separating wall during pretest and posttest but are confined to one compartment during conditionings.
Pretest (DAY 1): To test the basal preference of the mice, they were placed in the chamber to freely move between the two compartments for 30 min. Time spent in each compartment was […]
compartment was used to define three even groups.
Conditioning (DAY 2-9): Mice were injected s.c. with PBS, morphine (10 mg/kg) (RH Pharmacy, Denmark, Vnr. 475249), or 10 μmol/kg mPD5 immediately before being placed in and confined to the appropriate compartment for 40 min. Drug was paired to the least-preferred compartment, conditioning was alternated so that mice were never placed in the same compartment two days in a row, and the day on which they were exposed to drug was […]
Preference test (DAY 10): Mice were allowed to freely move between the two compartments […]
Ultrasonic vocalisation (USV) recordings.
Mice were left in Med-Associates square behavioral chambers (27 cm x 27 cm) to freely roam around for 60 min, four days in a row. The first two days were for habituation, but on the third and fourth days, USV recordings were performed using an Avisoft UltraSoundGate 416Hb recording interface (Model CM16-CMPA, Avisoft Bioacoustics, Germany) at a sampling rate of 250,000 Hz in 16-bit format kindly loaned by Morgan Thomsen and Simone Tonetto (Department of Neuroscience, University of Copenhagen, Copenhagen). On day three, both control and SNI mice were placed directly in the chambers and recorded for 60 min. On day four, control mice were injected s.c. with PBS, and SNI mice were injected with either 10 μmol/kg mPD5 or PBS immediately before being placed in the chambers and recorded for 60 min. The recordings were analyzed using the Avisoft SASLab Pro software (Version 5.02.07, Avisoft Bioacoustics) as described in (12), applying a fast fourier transformation (FFT) (1024 FTT length, 100% frame size, Blackman window, and 87.5% time window overlap).
Spectrograms were produced at a frequency resolution of 244 Hz and a time resolution of 0.512 ms. Spectrogram analysis was performed using an automatic whistle-tracking algorithm with an element separation threshold of -45 dB, 1 ms minimal duration, and a hold time of 10 ms.

Row | Compound | effect on tail-flick latency compared with baseline (naive mice [1]; naive mice, both sexes, s.c. 10 μmol/kg) | tail-flick time, individual mice (naive mice [1]; 10 umol/kg, female mice) | tail-flick time, individual mice (naive mice [1]; 10 umol/kg, male mice) | Conditioned place preference, Fig 6O, individual mice (naive mice [2]; 10 umol/kg) | CPP conditioning session value, Fig 6N, individual mice (naive mice [2]; Cond1, 10 umol/kg) | CPP conditioning session value, Fig 6N, individual mice (naive mice [2]; Cond2, 10 umol/kg) | CPP conditioning session value, Fig 6N, individual mice (naive mice [2]; Cond3, 10 umol/kg) | CPP conditioning session value, Fig 6N, individual mice (naive mice [2]; Cond4, 10 umol/kg) | locomotion during conditioning compared with PBS (naive mice [2]; s.c. 10 μmol/kg) | time in the drug-paired compartment during the posttest compared with PBS (naive mice [2]; s.c. 10 μmol/kg) | tail-flick time, individual mice (naive mice [1]; 10 mg/kg, female mice) | tail-flick time, individual mice (naive mice [1]; 10 mg/kg, male mice) | Conditioned place preference, Fig 6O, individual mice (naive mice [2]; 10 mg/kg) | CPP conditioning session value, Fig 6N, individual mice (naive mice [2]; Cond1, 10 mg/kg) | CPP conditioning session value, Fig 6N, individual mice (naive mice [2]; Cond2, 10 mg/kg) | CPP conditioning session value, Fig 6N, individual mice (naive mice [2]; Cond3, 10 mg/kg) | CPP conditioning session value, Fig 6N, individual mice (naive mice [2]; Cond4, 10 mg/kg) | locomotion during conditioning compared with PBS (naive mice [2]; s.c. 10 mg/kg) | time in the drug-paired compartment during the posttest compared with PBS (naive mice [2]; s.c. 10 mg/kg)
1 | CCCCCCCCCCCCCC(=O)N(CCOCCOCCC(=O)N[C@@H](Cc1c[nH]cn1)C(=O)N[C@@H](Cc1c[nH]c2ccccc12)C(=O)N[C@@H](CC(C)C)C(=O)N[C@@H](CCCCN)C(=O)N[C@H](C(=O)O)C(C)C)CCOCCOCCC(=O)N[C@@H](Cc1c[nH]cn1)C(=O)N[C@@H](Cc1c[nH]c2ccccc12)C(=O)N[C@@H](CC(C)C)C(=O)N[C@@H](CCCCN)C(=O)N[C@H](C(=O)O)C(C)C [mPD5, myristoyl-NPEG4-(HWLKV)2] | no effect on tail-flick latency | 3 and 4 (2×) and 5 | 3 (2×) and 2 and 4 | 422.4 and 657.8 and 145.75 and 377.8 and 709.7 and 623.7 and 240.55 and 244.05 | 2308.61 and 1809.85 and 2224.56 and 2674.86 and 871.493 and 1226.84 and 1378.23 and 2217.21 | 1180.49 and 1059.56 and 1212.87 and 2147.54 and 783.988 and 1076.18 and 1174.28 and 2455.85 | 1906.76 and 766.515 and 1139.87 and 2374.29 and 1205.41 and 1378.46 and 1356.35 and 1697.51 | 2079.11 and 1457.65 and 2495.22 and 2149.64 and 1597.67 and 2463.25 and 958.529 and 1951.51 | did not affect locomotion | did not |  |  |  |  |  |  |  |  | 
2 | CN1CC[C@]23c4c5ccc(O)c4O[C@H]2[C@@H](O)C=C[C@H]3[C@H]1C5 [morphine] |  |  |  |  |  |  |  |  |  |  | 10 | 10 (2×) and 6 and 7 | 641.2 and 758.05 and 523.1 and 617.25 and 422.75 and 543.85 and 370.9 and 516.75 | 9137.98 and 12057.9 and 7914.76 and 12165.9 and 13969.3 and 7487.52 and 2666.42 and 10528.9 | 15370.1 and 15969.7 and 11493.6 and 16698.2 and 17811.8 and 8242.22 and 9139.38 and 16599.9 | 15699.6 and 17306.6 and 14219.9 and 18863.2 and 19954.9 and 11799.1 and 7739.36 and 18695.7 | 14707.1 and 15254.9 and 15074.4 and 17950.9 and 21599.6 and 11535.1 and 8924.2 and 17697.5 | significantly increased locomotion | significantly more time in the drug-paired compartment
